Source: patent US5164381A, “Pharmacologically active 1,5-diaryl-3-substituted pyrazoles and method for synthesizing the same” (Ortho Pharmaceutical Corporation, priority 1991, dated 1992)

Columns and labels:
Leukotriene B4 = assay: Immune complex-induced synovitis in the dog knee joint: leukotriene B4 levels; type: in vivo, Mongrel dogs; details: for % I (inhibition) of leukotriene B4 / Leukotriene B4: 100 mg/kg p.o.
Description: (§1) The accuracy of the puncture was assured by the aspiration of clear, viscous synovial fluid (time 0 sample). The syringe was removed and immune complexes (see below) were injected into the synovial space. The synovial space was re-entered at various time intervals and synovial fluid was withdrawn. The volume of fluid was recorded and then added to 3.0 ml of 0.3% saline. A sample was removed and the number of cells present counted with the use of a hemocytometer and microscope to enumerate the total number of cells in the joint. The remaining sample was centrifuged at 1000×g for 10 minutes and the supernatant analyzed for prostaglandin E2 levels and leukotriene B4 levels.
(§2) To prepare the immune complex, two hundred milligrams of partially purified dog IgG was dissolved in 20 ml 0.9% sterile sodium chloride. The solution was clarified by centrifugation at 2230×G at 20° C. for 10 minutes. A 3 ml volume of the 10.0 mg/ml solution of dog IgG was mixed with 1 ml rabbit anti-dog IgG serum and incubated at room temperature for 20 minutes.
(§3) Four milliliters of saturated ammonium sulfate were added to the mixture to precipitate the complex and all free dog IgG and rabbit gamma globulin. The sample was then centrifuged (as above) and the pellet resuspended in 10 ml 0.9% sterile saline. One ml of this solution was injected into a knee joint.
(§4) Following the intra-articular administration of immune complexes synovial fluid samples were taken at 30 minutes, 1,2,4 and 24 hours, alternating knees for sampling (except at 24 hours when both knees were sampled).
(§5) The articular joint was entered and a zero hour synovial fluid sample was removed. 1 ml of immune complexes was injected into the synovial joint of both legs. […] Synovial fluid samples were taken at 30 minutes, 1, 2 and 4 hours. All samples were analyzed for total granulocyte count using a laser flow cytometer. Prostaglandin and leukotriene concentrations were determined with standard RIA techniques.

Prostaglandin E2 = assay: Immune complex-induced synovitis in the dog knee joint: prostaglandin E2 levels; type: in vivo, Mongrel dogs; details: for Prostaglandin E2 Levels / % I (inhibition) of prostaglandin E2 levels: 100 mg/kg p.o.; for Prostaglandin E2 Levels: radioimmunoassay
Description: as §1, §2, §3, §4, §5

gastrointestinal tract = details: suboptimal antiinflammatory doses; cited from earlier work
[1] = tested on: total cells in synovial fluid of dog knee joint; assay: Immune complex-induced synovitis in the dog knee joint: cellular infiltrate; type: in vivo, Mongrel dogs; details: for Cellular Infiltrate Total Cells (× 10^6) / % I (inhibition) of total cells: 100 mg/kg p.o.
Description: as §1, §2, §3, §4, §5

cyclooxygenase (CO) = details: cited from earlier work

Structure (SMILES): COc1ccc2cc([C@H](C)C(=O)O)ccc2c1 [Naproxen, reference compound]
- levels of LTB4 in the synovial fluid (in words) (Leukotriene B4; 100 mg/kg orally, dog): increased the LTB4 levels
- % I (inhibition) of leukotriene B4 (Leukotriene B4; 0.5 Hr): 10.5%
- Leukotriene B4 (Leukotriene B4; 0.5 Hr): 1.11 ± 0.36 ng/ml Synovial Fluid
- % I (inhibition) of leukotriene B4 (Leukotriene B4; 1 Hr): -26.7%
- Leukotriene B4 (Leukotriene B4; 1 Hr): 3.27 ± 1.53 ng/ml Synovial Fluid
- % I (inhibition) of leukotriene B4 (Leukotriene B4; 2 Hr): -47.4%
- Leukotriene B4 (Leukotriene B4; 2 Hr): 5.94 ± 1.33 ng/ml Synovial Fluid
- % I (inhibition) of leukotriene B4 (Leukotriene B4; 4 Hr): -140%
- Leukotriene B4 (Leukotriene B4; 4 Hr): 3.36 ± 1.28 ng/ml Synovial Fluid
- LTB4 levels (in words) (Leukotriene B4; i.v. 25 mg/kg or orally, dog): does not decrease
- levels of PGE2 in the synovial fluid (in words) (Prostaglandin E2; 100 mg/kg orally, dog): inhibited
- Prostaglandin E2 Levels (Prostaglandin E2; 0.5 Hr): 0.83 ± 0.24 ng/mL
- Prostaglandin E2 Levels (Prostaglandin E2; 1 Hr): 1.67 ± 0.73 ng/mL
- % I (inhibition) of prostaglandin E2 levels (Prostaglandin E2; 2 Hr): 62.0%
- Prostaglandin E2 Levels (Prostaglandin E2; 2 Hr): 1.88 ± 0.86 ng/mL
- % I (inhibition) of prostaglandin E2 levels (Prostaglandin E2; 4 Hr): 44.9%
- Prostaglandin E2 Levels (Prostaglandin E2; 4 Hr): 2.2 ± 0.97 ng/mL
- PGE2 levels (in words) (Prostaglandin E2; i.v. 25 mg/kg or orally, dog): inhibits PGE 2 levels
- ulcers in rats (in words) (gastrointestinal tract): significant ulcers
- cellular infiltrate (in words) ([1]; 100 mg/kg orally, dog): inhibited the cell infiltration
- Cellular Infiltrate Total Cells (× 10^6) ([1]; 0.5 HR): 0.32 ± 0.11 × 10^6
- Cellular Infiltrate Total Cells (× 10^6) ([1]; 1 HR): 0.02 ± 0.02 × 10^6
- % I (inhibition) of total cells ([1]; 2 HR): 36.6%
- Cellular Infiltrate Total Cells (× 10^6) ([1]; 2 HR): 2.69 ± 0.63 × 10^6
- % I (inhibition) of total cells ([1]; 4 HR): 44.2%
- Cellular Infiltrate Total Cells (× 10^6) ([1]; 4 HR): 27.6 ± 24 × 10^6
- total cell number / cellular infiltration (in words) ([1]; i.v. 25 mg/kg or orally, dog): inhibits
- inhibition of cyclooxygenase enzyme by NSAIDs (in words) (cyclooxygenase (CO)): only inhibit the cyclooxygenase enzyme
